Key:
Type in all cases: in vivo
Parameters in all cases: key: 0 is no effect; 10 is complete control
soybean (Glycine max) = assay: Test B pre-/postemergence
Source text: (§1) Seeds of bedstraw (Galium aparine), blackgrass (Alopecurus myosuroides), broadleaf signalgrass (Brachiaria decumbens), cocklebur (Xanthium strumarium), corn (Zea mays), crabgrass (Digitaria sanguinalis), giant foxtail (Setaria faberii), lambsquarters (Chenopodium album), momingglory (Ipomoea hederacea), pigweed (Amaranthus retroflexus), rape (Brassica napus), soybean (Glycine max), sugar beet (Beta vulgaris), velvetleaf (Abutilon theophrasti), wheat (Triticum aestivum), wild oat (Avena fatua) and purple nutsedge (Cyperus rotundus) tubers were planted and treated preemergence with test chemicals formulated in a non-phytotoxic solvent mixture which included a surfactant.
(§2) At the same time, these crop and weed species were also treated with postemergence applications of test chemicals formulated in the same manner. Plants ranged in height from 2 to 18 cm (1- to 4-leaf stage) for postemergence treatments. Plant species in the flood test consisted of rice (Oryza sativa), smallflower flatsedge (Cyperus difformis), duck salad (Heteranthera limosa) and bamyardgrass (Echinochloa crus-galli) grown to the 2-leaf stage for testing. Treated plants and controls were maintained in a greenhouse for twelve to sixteen days, after which all species were compared to controls and visually evaluated. Plant response ratings, summarized in Table B, are based on a scale of 0 to 10 where 0 is no effect and 10 is complete control. A dash (−) response means no test result.

[1] = test system: broadleaf signalgrass (Brachiaria decumbens); assay: Test B pre-/postemergence
Source text: as §1, §2

corn (Zea mays) = assay: Test B pre-/postemergence
Source text: as §1, §2

wild oat (Avena fatua) = assay: Test B pre-/postemergence
Source text: as §1, §2

[2] = test system: giant foxtail (Setaria faberii); assay: Test B pre-/postemergence
Source text: as §1, §2

[3] = test system: velvetleaf (Abutilon theophrasti); assay: Test B pre-/postemergence
Source text: as §1, §2

[4] = test system: sugar beet (Beta vulgaris); assay: Test B pre-/postemergence
Source text: as §1, §2

[5] = test system: cocklebur (Xanthium strumarium); assay: Test B pre-/postemergence
Source text: as §1, §2

[6] = test system: bedstraw (Galium aparine); assay: Test B pre-/postemergence
Source text: as §1, §2

[7] = test system: pigweed (Amaranthus retroflexus); assay: Test B pre-/postemergence
Source text: as §1, §2

[8] = test system: wheat (Triticum aestivum); assay: Test B pre-/postemergence
Source text: as §1, §2

[9] = test system: momingglory (Ipomoea hederacea); assay: Test B pre-/postemergence
Source text: as §1, §2

[10] = test system: crabgrass (Digitaria sanguinalis); assay: Test B pre-/postemergence
Source text: as §1, §2

[11] = test system: blackgrass (Alopecurus myosuroides); assay: Test B pre-/postemergence
Source text: as §1, §2

rape (Brassica napus) = assay: Test B pre-/postemergence
Source text: as §1, §2

rice (Oryza sativa) = assay: Test B flood test
Outline: (§3)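 Flood test on plants grown to the 2-leaf stage; treated plants kept in greenhouse twelve to sixteen days, then visually rated against controls on a 0 (no effect) to 10 (complete control) scale.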

[12] = test system: bamyardgrass (Echinochloa crus-galli); assay: Test B flood test
Outline: as §3

[13] = test system: duck salad (Heteranthera limosa); assay: Test B flood test
Outline: as §3

[14] = test system: smallflower flatsedge (Cyperus difformis); assay: Test B flood test
Outline: as §3

[15] = Preemergence, Rate 62 g/ha, scale of 0 to 10
[16] = Rate 62 g/ha, Postemergence (flood test)
[17] = Rate 125 g/ha, Postemergence section (flood test species)
[18] = Rate 250 g/ha, Postemergence (flood test species)

CCc1cnc(-n2ccc(C(F)(F)F)n2)nc1C(=O)c1cccc(C#N)c1 [Compound 72]
Plant response rating, Soybean (soybean (Glycine max); [15]): 0
Soybean plant response rating (soybean (Glycine max); Rate 62 g/ha, Postemergence): 2
Soybean plant response rating (soybean (Glycine max); Rate 125 g/ha, Postemergence): 2
Plant response rating, Soybean (soybean (Glycine max); Rate 125 g/ha, Preemergence): 3
Plant response rating, Soybean (soybean (Glycine max); Rate 250 g/ha, Postemergence): 5
Plant response rating, Soybean (soybean (Glycine max); Rate 250 g/ha, Preemergence): 3
B. signalgrass plant response rating ([1]; Rate 62 g/ha, Postemergence): 2
B. signalgrass plant response rating ([1]; Rate 62 g/ha, Preemergence): 1
B. signalgrass plant response rating ([1]; Rate 125 g/ha, Postemergence): 4
Plant response rating, B. signalgrass ([1]; Rate 125 g/ha, Preemergence): 2
Plant response rating, B. signalgrass ([1]; Rate 250 g/ha, Postemergence): 6
Plant response rating, B. signalgrass ([1]; Rate 250 g/ha, Preemergence): 7
Plant response rating, Corn (corn (Zea mays); [15]): 3
Corn plant response rating (corn (Zea mays); Rate 62 g/ha, Postemergence): 2
Corn plant response rating (corn (Zea mays); Rate 125 g/ha, Postemergence): 3
Plant response rating, Corn (corn (Zea mays); Rate 125 g/ha, Preemergence): 4
Plant response rating, Corn (corn (Zea mays); Rate 250 g/ha, Postemergence): 5
Plant response rating, Corn (corn (Zea mays); Rate 250 g/ha, Preemergence): 5
Plant response rating, Wild oats (wild oat (Avena fatua); [15]): 1
Wild oats plant response rating (wild oat (Avena fatua); Rate 62 g/ha, Postemergence): 2
Wild oats plant response rating (wild oat (Avena fatua); Rate 125 g/ha, Postemergence): 2
Plant response rating, Wild oats (wild oat (Avena fatua); Rate 125 g/ha, Preemergence): 2
Plant response rating, Wild oats (wild oat (Avena fatua); Rate 250 g/ha, Postemergence): 4
Plant response rating, Wild oats (wild oat (Avena fatua); Rate 250 g/ha, Preemergence): 3
Plant response rating, Giant foxtail [2, 15]: 5
Giant foxtail plant response rating ([2]; Rate 62 g/ha, Postemergence): 5
Giant foxtail plant response rating ([2]; Rate 125 g/ha, Postemergence): 6
Plant response rating, Giant foxtail ([2]; Rate 125 g/ha, Preemergence): 5
Plant response rating, Giant foxtail ([2]; Rate 250 g/ha, Postemergence): 7
Plant response rating, Giant foxtail ([2]; Rate 250 g/ha, Preemergence): 7
Plant response rating, Velvetleaf [3, 15]: 3
Velvetleaf plant response rating ([3]; Rate 62 g/ha, Postemergence): 2
Velvetleaf plant response rating ([3]; Rate 125 g/ha, Postemergence): 3
Plant response rating, Velvetleaf ([3]; Rate 125 g/ha, Preemergence): 4
Plant response rating, Velvetleaf ([3]; Rate 250 g/ha, Postemergence): 5
Plant response rating, Velvetleaf ([3]; Rate 250 g/ha, Preemergence): 7
Plant response rating, Sugarbeets [4, 15]: 8
Sugarbeets plant response rating ([4]; Rate 62 g/ha, Postemergence): 9
Sugarbeets plant response rating ([4]; Rate 125 g/ha, Postemergence): 9
Plant response rating, Sugarbeets ([4]; Rate 125 g/ha, Preemergence): 10
Plant response rating, Sugarbeets ([4]; Rate 250 g/ha, Postemergence): 9
Plant response rating, Sugarbeets ([4]; Rate 250 g/ha, Preemergence): 10
Plant response rating, Cocklebur [5, 15]: 0
Cocklebur plant response rating ([5]; Rate 62 g/ha, Postemergence): 3
Cocklebur plant response rating ([5]; Rate 125 g/ha, Postemergence): 4
Plant response rating, Cocklebur ([5]; Rate 125 g/ha, Preemergence): 0
Plant response rating, Cocklebur ([5]; Rate 250 g/ha, Postemergence): 4
Plant response rating, Cocklebur ([5]; Rate 250 g/ha, Preemergence): 0
Plant response rating, Bedstraw [6, 15]: 0
Plant response rating, Bedstraw ([6]; Rate 250 g/ha, Postemergence): 4
Plant response rating, Bedstraw ([6]; Rate 250 g/ha, Preemergence): 5
Plant response rating, Redroot pigweed [7, 15]: 7
Redroot pigweed plant response rating ([7]; Rate 62 g/ha, Postemergence): 8
Redroot pigweed plant response rating ([7]; Rate 125 g/ha, Postemergence): 9
Plant response rating, Redroot pigweed ([7]; Rate 125 g/ha, Preemergence): 9
Plant response rating, Redroot pigweed ([7]; Rate 250 g/ha, Postemergence): 9
Plant response rating, Redroot pigweed ([7]; Rate 250 g/ha, Preemergence): 9
Plant response rating, Wheat [8, 15]: 0
Wheat plant response rating ([8]; Rate 62 g/ha, Postemergence): 3
Wheat plant response rating ([8]; Rate 125 g/ha, Postemergence): 3
Plant response rating, Wheat ([8]; Rate 125 g/ha, Preemergence): 0
Plant response rating, Wheat ([8]; Rate 250 g/ha, Postemergence): 4
Plant response rating, Wheat ([8]; Rate 250 g/ha, Preemergence): 3
Plant response rating, Morningglory [9, 15]: 2
Morningglory plant response rating ([9]; Rate 125 g/ha, Postemergence): 4
Plant response rating, Morningglory ([9]; Rate 125 g/ha, Preemergence): 3
Plant response rating, Morningglory ([9]; Rate 250 g/ha, Postemergence): 4
Plant response rating, Morningglory ([9]; Rate 250 g/ha, Preemergence): 8
Plant response rating, Crabgrass [10, 15]: 6
Crabgrass plant response rating ([10]; Rate 62 g/ha, Postemergence): 4
Crabgrass plant response rating ([10]; Rate 125 g/ha, Postemergence): 6
Plant response rating, Crabgrass ([10]; Rate 125 g/ha, Preemergence): 9
Plant response rating, Crabgrass ([10]; Rate 250 g/ha, Postemergence): 8
Plant response rating, Crabgrass ([10]; Rate 250 g/ha, Preemergence): 9
Plant response rating, Blackgrass [11, 15]: 1
Blackgrass plant response rating ([11]; Rate 62 g/ha, Postemergence): 4
Blackgrass plant response rating ([11]; Rate 125 g/ha, Postemergence): 5
Plant response rating, Blackgrass ([11]; Rate 125 g/ha, Preemergence): 1
Plant response rating, Blackgrass ([11]; Rate 250 g/ha, Postemergence): 5
Plant response rating, Blackgrass ([11]; Rate 250 g/ha, Preemergence): 4
Plant response rating, Rape (rape (Brassica napus); [15]): 4
Rape plant response rating (rape (Brassica napus); Rate 62 g/ha, Postemergence): 3
Rape plant response rating (rape (Brassica napus); Rate 125 g/ha, Postemergence): 7
Plant response rating, Rape (rape (Brassica napus); Rate 125 g/ha, Preemergence): 5
Plant response rating, Rape (rape (Brassica napus); Rate 250 g/ha, Postemergence): 7
Plant response rating, Rape (rape (Brassica napus); Rate 250 g/ha, Preemergence): 9
Rice plant response rating (rice (Oryza sativa); [16]): 0
Rice plant response rating (rice (Oryza sativa); [17]): 0
Plant response rating, Rice (rice (Oryza sativa); [18]): 2
Barnyardgrass plant response rating [12, 16]: 2
Barnyardgrass plant response rating [12, 17]: 3
Plant response rating, Barnyardgrass [12, 18]: 6
Ducksalad plant response rating [13, 16]: 2
Ducksalad plant response rating [13, 17]: 2
Plant response rating, Ducksalad [13, 18]: 3
S. Flatsedge plant response rating [14, 16]: 3
S. Flatsedge plant response rating [14, 17]: 3
Plant response rating, S. Flatsedge [14, 18]: 4
